Test results published in patent US7767659B2, “Synthesis of naturally occurring ecteinascidins and related compounds” (Pharma Mar, S.A., priority 2002, dated 2010).
Where two headings read alike, the source gives them in different places.

Key:
[1] = system: A-549; test: cells; conditions: for GI50: read-out: GI50 A549; for CC50: read-out: LC50 A549
Method in brief: (§1)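 Colorimetric SRB read (490 nm) on triplicate wells after 48 h at 37 °C, 5% CO2. Dose range 10 to 10^−8 μg/ml; 5×10^3 cells/well pre-attached 18 h.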

[2] = system: HT-29; test: cells; conditions: for GI50: read-out: GI50 HT29; for CC50: read-out: LC50 HT29
Method in brief: as §1

[3] = system: LoVo; test: cells; conditions: for GI50: read-out: GI50 LOVO; for CC50: read-out: LC50 LOVO
Method in brief: as §1

[4] = system: SK-BR-3; test: Inhibition of cells growth by colorimetric assay (SRB); conditions: for GI50: read-out: GI50 SK-BR3; for CC50: read-out: LC50 SK-BR3
Method in brief: as §1

[5] = system: IGROV-ET; test: as above; conditions: for GI50: read-out: GI50 IGROV-ET; for CC50: read-out: LC50 IGROV-ET
Method in brief: as §1

[6] = system: HeLa; test: as above; conditions: for GI50: read-out: GI50 HELA; for CC50: read-out: LC50 HELA
Method in brief: as §1

[7] = system: HeLa-APL; test: as above; conditions: for GI50: read-out: GI50 HELA-APL; for CC50: read-out: LC50 HELA-APL
Method in brief: as §1

[8] = system: SK-MEL-28; test: as above; conditions: for GI50: read-out: GI50 MEL-28; for CC50: read-out: LC50 MEL-28
Method in brief: as §1

[9] = system: PANC-1; test: as above; conditions: for GI50: read-out: GI50 PANC-1; for CC50: read-out: LC50 PANC-1
Method in brief: as §1

[10] = system: LoVo-Dox; test: as above; conditions: for GI50: read-out: GI50 LOVO-DOX; for CC50: read-out: LC50 LOVO-DOX
Method in brief: as §1

[11] = system: LNCaP; test: as above; conditions: for GI50: read-out: GI50 LNCAP; for CC50: read-out: LC50 LNCAP
Method in brief: as §1

[12] = system: IGROV-1; test: as above; conditions: for GI50: read-out: GI50 IGROV; for CC50: read-out: LC50 IGROV
Method in brief: as §1

[13] = system: DU-145; test: as above; conditions: for GI50: read-out: GI50 DU145; for CC50: read-out: LC50 DU145
Method in brief: as §1

[14] = system: K-562; test: as above; conditions: for GI50: read-out: GI50 K562; for CC50: read-out: LC50 K562
Method in brief: as §1

[15] = IGROV-ET, SRB, 48 hours exposure
[16] = HELA-APL, SRB, 48 hours exposure
[17] = LOVO-DOX, SRB, 48 hours exposure

C=CCN1C2Cc3cc(C)c(OC)c(O)c3C1C1C3SCC(NC(C)=O)C(=O)OCC(c4c5c(c(C)c(OC(C)=O)c43)OCO5)N1C2C#N (stereo not drawn) [compound 24]
TGI A549 ([1]; A549, SRB, 48 hours exposure): 4.62E−08 Molar
GI50 ([1]; A549, SRB, 48 hours exposure): 21.9 nM
CC50 ([1]; A549, SRB, 48 hours exposure): 97.4 nM
TGI HT29 ([2]; HT29, SRB, 48 hours exposure): 1.39E−08 Molar
GI50 ([2]; HT29, SRB, 48 hours exposure): 5.17 nM
CC50 ([2]; HT29, SRB, 48 hours exposure): 14500 nM
TGI LOVO ([3]; LOVO, SRB, 48 hours exposure): 8.21E−08 Molar
GI50 ([3]; LOVO, SRB, 48 hours exposure): 26.1 nM
CC50 ([3]; LOVO, SRB, 48 hours exposure): 14500 nM
TGI SK-BR3 ([4]; SK-BR3, SRB, 48 hours exposure): 6.38E−08 Molar
GI50 ([4]; SK-BR3, SRB, 48 hours exposure): 24.8 nM
CC50 ([4]; SK-BR3, SRB, 48 hours exposure): 269 nM
TGI IGROV-ET [5, 15]: 6.20E−08 Molar
GI50 [5, 15]: 29.5 nM
CC50 [5, 15]: 130 nM
TGI HELA ([6]; HELA, SRB, 48 hours exposure): 4.76E−08 Molar
GI50 ([6]; HELA, SRB, 48 hours exposure): 20.3 nM
CC50 ([6]; HELA, SRB, 48 hours exposure): 112 nM
TGI HELA-APL [7, 16]: 4.65E−08 Molar
GI50 [7, 16]: 20.3 nM
CC50 [7, 16]: 107 nM
TGI MEL-28 ([8]; MEL-28, SRB, 48 hours exposure): 4.27E−08 Molar
GI50 ([8]; MEL-28, SRB, 48 hours exposure): 20.1 nM
CC50 ([8]; MEL-28, SRB, 48 hours exposure): 90.9 nM
TGI PANC-1 ([9]; PANC-1, SRB, 48 hours exposure): 9.19E−08 Molar
GI50 ([9]; PANC-1, SRB, 48 hours exposure): 30.1 nM
CC50 ([9]; PANC-1, SRB, 48 hours exposure): 14500 nM
TGI LOVO-DOX [10, 17]: 1.74E−06 Molar
GI50 [10, 17]: 115 nM
CC50 [10, 17]: 14500 nM
TGI LNCAP ([11]; LNCAP, SRB, 48 hours exposure): 2.53E−08 Molar
GI50 ([11]; LNCAP, SRB, 48 hours exposure): 8.4 nM
CC50 ([11]; LNCAP, SRB, 48 hours exposure): 64.4 nM
TGI IGROV ([12]; IGROV, SRB, 48 hours exposure): 3.18E−08 Molar
GI50 ([12]; IGROV, SRB, 48 hours exposure): 8.21 nM
CC50 ([12]; IGROV, SRB, 48 hours exposure): 110 nM
TGI DU145 ([13]; DU145, SRB, 48 hours exposure): 5.23E−08 Molar
GI50 ([13]; DU145, SRB, 48 hours exposure): 27.8 nM
CC50 ([13]; DU145, SRB, 48 hours exposure): 125 nM
TGI K562 ([14]; K562, SRB, 48 hours exposure): 1.71E−08 Molar
GI50 ([14]; K562, SRB, 48 hours exposure): 4.07 nM
CC50 ([14]; K562, SRB, 48 hours exposure): 93.8 nM

C=CCN1[C@@H]2c3c(cc(C)c(OC)c3O)C[C@H]1[C@H](C#N)N1C2[C@@H]2SCC(NC(=O)C(F)(F)F)C(=O)OC[C@H]1c1c3c(c(C)c(OC(C)=O)c12)OCO3 (stereo partly drawn) [compound 25]
GI50 ([1]; Homo sapiens, A549, 48 h): 927 nM
CC50 ([1]; Homo sapiens, A549, 48 h): 11500 nM
IC (TGI) ([1]; Homo sapiens, A549, 48 h, read-out: TGI A549): 3450 nM
GI50 ([2]; Homo sapiens, HT-29, 48 h): 1640 nM
CC50 ([2]; Homo sapiens, HT-29, 48 h): 13900 nM
IC (TGI) ([2]; Homo sapiens, HT-29, 48 h, read-out: TGI HT29): 8570 nM
GI50 ([3]; Homo sapiens, LoVo, 48 h): 938 nM
CC50 ([3]; Homo sapiens, LoVo, 48 h): 9270 nM
IC (TGI) ([3]; Homo sapiens, LoVo, 48 h, read-out: TGI LOVO): 3160 nM
GI50 ([4]; Homo sapiens, SK-BR-3, 48 h): 555 nM
CC50 ([4]; Homo sapiens, SK-BR-3, 48 h): 8640 nM
IC (TGI) ([4]; Homo sapiens, SK-BR-3, 48 h, read-out: TGI SK-BR3): 1060 nM
GI50 ([5]; Homo sapiens, 48 h): 1610 nM
CC50 ([5]; Homo sapiens, 48 h): 12100 nM
IC (TGI) ([5]; Homo sapiens, 48 h, read-out: TGI IGROV-ET): 4410 nM
GI50 ([6]; Homo sapiens, HeLa, 48 h): 1500 nM
CC50 ([6]; Homo sapiens, HeLa, 48 h): 8110 nM
IC (TGI) ([6]; Homo sapiens, HeLa, 48 h, read-out: TGI HELA): 3480 nM
GI50 ([7]; Homo sapiens, 48 h): 939 nM
CC50 ([7]; Homo sapiens, 48 h): 7690 nM
IC (TGI) ([7]; Homo sapiens, 48 h, read-out: TGI HELA-APL): 2780 nM
GI50 ([8]; Homo sapiens, SK-MEL-28, 48 h): 632 nM
CC50 ([8]; Homo sapiens, SK-MEL-28, 48 h): 5650 nM
IC (TGI) ([8]; Homo sapiens, SK-MEL-28, 48 h, read-out: TGI MEL-28): 1770 nM
GI50 ([9]; Homo sapiens, PANC-1, 48 h): 1370 nM
CC50 ([9]; Homo sapiens, PANC-1, 48 h): 11000 nM
IC (TGI) ([9]; Homo sapiens, PANC-1, 48 h, read-out: TGI PANC-1): 3900 nM
GI50 ([10]; Homo sapiens, 48 h): 904 nM
CC50 ([10]; Homo sapiens, 48 h): 13900 nM
IC (TGI) ([10]; Homo sapiens, 48 h, read-out: TGI LOVO-DOX): 3770 nM
GI50 ([11]; Homo sapiens, LNCaP, 48 h): 323 nM
CC50 ([11]; Homo sapiens, LNCaP, 48 h): 2550 nM
IC (TGI) ([11]; Homo sapiens, LNCaP, 48 h, read-out: TGI LNCAP): 757 nM
GI50 ([12]; Homo sapiens, IGROV-1, 48 h): 660 nM
CC50 ([12]; Homo sapiens, IGROV-1, 48 h): 8010 nM
IC (TGI) ([12]; Homo sapiens, IGROV-1, 48 h, read-out: TGI IGROV): 1430 nM
GI50 ([13]; Homo sapiens, DU-145, 48 h): 861 nM
CC50 ([13]; Homo sapiens, DU-145, 48 h): 6570 nM
IC (TGI) ([13]; Homo sapiens, DU-145, 48 h, read-out: TGI DU145): 2200 nM
GI50 ([14]; Homo sapiens, K562, 48 h): 316 nM
CC50 ([14]; Homo sapiens, K562, 48 h): 3780 nM
IC (TGI) ([14]; Homo sapiens, K562, 48 h, read-out: TGI K562): 775 nM
